The text below walks through data of US20100331305A1, “OXO-HETEROCYCLE FUSED PYRIMIDINE COMPOUNDS, COMPOSITIONS AND METHODS OF USE” (Genentech, Inc., priority 2009, published 2010).

For assay [1], the system named is AKT serine-473 phosphorylation in PC-3 cells. In words: In vitro phospho-AKT serine 473 cellular assay. Conditions: Homo sapiens; PC-3 cells stimulated with EGF; first nine specific compounds; read-out: EC50 activity level, inhibition of AKT serine-473 phosphorylation. In kind it is cell-based. The procedure:
b. In Vitro Phospho-AKT Serine 473 Cellular Assay
The assay measures a test compound's inhibition of AKT serine-473 phosphorylation in human prostate adenocarcinoma derived PC-3 (ATCC CRL-1435) cells that have been stimulated with epidermal growth factor (EGF).
The PC-3 cell line is maintained in RPMI1640 media supplemented with 10% FBS, 2 mM Glutamine, and 10 mM HEPES pH 7.4 at 37° C. in a 5% CO2 humidified incubator.
Cells are seeded in 384-well plates at 7,000 cells/well in 50 μl growth media. After 24 hours, growth media is removed and replaced with RPMI1640 containing no FBS. Cells are treated with 10 concentrations of test compounds or DMSO alone for controls (final DMSO concentration 0.5%) and incubated at 37° C. for 30 minutes. Cells are then stimulated for 10 minutes with 100 ng/ml EGF (final concentration). One column of controls is not stimulated with EGF to observe the signal ratio between stimulated and non-stimulated cells. After 10 minutes, compounds and stimulation media are removed and replaced with 25 μl lysis buffer containing protease inhibitors and phosphatase inhibitors. This buffer contains detergent to bring about cellular disruption. […] Following the transfer of lysate to the MSD plate, AKT in the lysate is captured on the coated antibody by incubation on a shaker at 4° C. for 16 hours. Following the capture step the plate is washed and then incubated for two hours with an antibody to S473 phosphorylated AKT which is conjugated with a Sulfo-Tag. This tag gives a signal when in proximity to the electrode on the base of the MSD plate. Binding the tagged antibody to the captured protein allow detection on a MSD reader.
EC50 values are calculated using MDL Assay Explorer 3.0.1.8 fitting a sigmoidal curve with a variable slope.

For the next assay, the system named is PC3 cells. In words: In vitro cell proliferation assay. In kind it is cell-based, human. Conditions: Homo sapiens, PC-3, with PC3 cells; values tied to compounds by order of Table 1. The gist of the method: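 PC3 (or MDAMB361.1) cells, ~10^3/well, settled overnight, then exposed to compound for 3 days; viability read by CellTiter-Glo luminescence (RLU). Alternatively, 4-day compound exposure followed by Alamar Blue for 6 h, fluorescence 544/590 nm; EC50 from sigmoidal dose-response fit.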

Assay [2] concerns the target mTOR enzyme (mTOR(1360-2549)+GBL) (Homo sapiens, UniProt P42345). In words: In vitro mTOR kinase assay (TR-FRET). The note with it: 0.25 nM mTOR+GBL, 8 uM ATP; values tied to compounds by order of Table 1; 'x or y' = two alternative values for separated diastereomers of unassigned stereochemistry; read-out: activity level (Ki) in the mTOR kinase assay. In kind it is biochemical. The gist of the method: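 Compounds were tested in 10-point dose curves from 10 uM top final concentration. The reaction was stopped with 2 nM Tb-anti-p4E-BP1 (T37/T46) antibody plus 10 mM EDTA for 30 minutes, and phospho-4E-BP1 was detected by TR-FRET. Ki apparent was fitted with the Morrison ATP-competitive tight-binding equation.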

Chain of mTOR enzyme (mTOR(1360-2549)+GBL) (P42345 1360-2549, species assumed): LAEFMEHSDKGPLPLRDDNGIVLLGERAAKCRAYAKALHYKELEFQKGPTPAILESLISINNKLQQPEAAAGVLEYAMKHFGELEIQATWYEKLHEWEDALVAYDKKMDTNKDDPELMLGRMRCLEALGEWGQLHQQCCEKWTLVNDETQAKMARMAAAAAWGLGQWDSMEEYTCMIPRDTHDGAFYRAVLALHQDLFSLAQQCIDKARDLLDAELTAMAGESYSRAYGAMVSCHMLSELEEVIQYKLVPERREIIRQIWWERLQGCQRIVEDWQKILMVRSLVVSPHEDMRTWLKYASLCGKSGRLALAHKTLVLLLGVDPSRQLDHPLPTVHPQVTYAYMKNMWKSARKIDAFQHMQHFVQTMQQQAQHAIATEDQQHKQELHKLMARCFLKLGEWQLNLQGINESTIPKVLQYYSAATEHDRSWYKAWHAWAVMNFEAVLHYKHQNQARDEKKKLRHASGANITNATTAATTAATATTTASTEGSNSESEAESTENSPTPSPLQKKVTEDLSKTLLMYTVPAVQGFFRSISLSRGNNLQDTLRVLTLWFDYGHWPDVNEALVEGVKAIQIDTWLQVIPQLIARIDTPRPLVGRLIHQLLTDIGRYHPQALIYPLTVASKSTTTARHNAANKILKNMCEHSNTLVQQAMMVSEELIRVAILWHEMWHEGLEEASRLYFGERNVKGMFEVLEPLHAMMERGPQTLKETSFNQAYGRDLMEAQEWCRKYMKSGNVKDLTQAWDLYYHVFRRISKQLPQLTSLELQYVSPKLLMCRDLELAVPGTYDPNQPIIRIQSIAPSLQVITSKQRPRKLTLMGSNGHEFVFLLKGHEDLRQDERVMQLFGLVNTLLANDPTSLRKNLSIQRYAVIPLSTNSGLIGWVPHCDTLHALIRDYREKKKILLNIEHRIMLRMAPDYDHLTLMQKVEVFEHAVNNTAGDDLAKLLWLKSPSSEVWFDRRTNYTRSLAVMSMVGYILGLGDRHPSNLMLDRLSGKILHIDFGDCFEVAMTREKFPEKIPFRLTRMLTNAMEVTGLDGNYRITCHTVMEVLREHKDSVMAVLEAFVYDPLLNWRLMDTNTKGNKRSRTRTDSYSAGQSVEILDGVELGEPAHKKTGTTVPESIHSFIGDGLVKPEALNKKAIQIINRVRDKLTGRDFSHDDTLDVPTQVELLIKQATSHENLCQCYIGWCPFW
Chain of mTOR enzyme (mTOR(1360-2549)+GBL) (Q9BVC4 whole entry partner, species assumed): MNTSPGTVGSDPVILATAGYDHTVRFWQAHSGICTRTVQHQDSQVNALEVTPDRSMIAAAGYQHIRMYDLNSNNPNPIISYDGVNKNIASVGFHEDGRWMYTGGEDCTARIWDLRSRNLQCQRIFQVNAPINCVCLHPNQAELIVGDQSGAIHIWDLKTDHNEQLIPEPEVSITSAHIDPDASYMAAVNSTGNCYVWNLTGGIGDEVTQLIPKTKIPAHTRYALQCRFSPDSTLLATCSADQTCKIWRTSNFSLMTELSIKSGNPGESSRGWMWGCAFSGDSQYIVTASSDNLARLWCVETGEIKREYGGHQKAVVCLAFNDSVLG

Regarding `CCNC(=O)Nc1ccc(-c2nc3c(c(N4CCOCC4)n2)CCCO3)cc1` [Example 15, 1-ethyl-3-(4-(4-morpholino-6,7-dihydro-5H-pyrano[2,3-d]pyrimidin-2-yl)phenyl)urea], the values for the EC50 (in assay [1]; in the assay on PC3 cells) were 85 nM and 194 nM, respectively.

For the molecule `CCNC(=O)Nc1ccc(-c2nc3c(c(N4CCOC[C@@H]4C)n2)CCCO3)cc1` [Example 16, (S)-1-ethyl-3-(4-(4-(3-methylmorpholino)-6,7-dihydro-5H-pyrano[2,3-d]pyrimidin-2-yl)phenyl)urea], the Ki in assay [2] amounted to 2 nM. The 50% effective concentration (EC50) in assay [1] was 10 nM; in the assay with PC3 cells, 231 nM.

For `CCNC(=O)Nc1ccc(-c2nc3c(c(N4CCOC[C@@H]4C)n2)COCC3)cc1` [Example 17, (S)-1-ethyl-3-(4-(4-(3-methylmorpholino)-7,8-dihydro-5H-pyrano[4,3-d]pyrimidin-2-yl)phenyl)urea], the inhibition constant (Ki) in assay [2] is 4 nM. Further, the EC50 in assay [1] was 22 nM; with PC3 cells, 175 nM.

On to `CCNC(=O)Nc1ccc(-c2nc3c(c(N4CCOC[C@@H]4CC)n2)COCC3)cc1` [Example 19, (S)-1-ethyl-3-(4-(4-(3-ethylmorpholino)-7,8-dihydro-5H-pyrano[4,3-d]pyrimidin-2-yl)phenyl)urea], for which the Ki in assay [2] is 1 nM. The figures for the EC50 (in assay [1]; in the assay on PC3 cells) were 6 nM and 88 nM, respectively.

In the case of `C[C@H]1COCCN1c1nc(-c2ccc(NC(=O)Nc3ccon3)cc2)nc2c1COCC2` [Example 20, (S)-1-(isoxazol-3-yl)-3-(4-(4-(3-methylmorpholino)-7,8-dihydro-5H-pyrano[4,3-d]pyrimidin-2-yl)phenyl)urea], the Ki in assay [2] is 2 nM. In addition, the values for the EC50 (in assay [1]; in the assay on PC3 cells) were 15 nM and 94 nM, respectively.

As for `C[C@H]1COCCN1c1nc(-c2ccc(NC(=O)Nc3ccn(C)n3)cc2)nc2c1COCC2` [Example 21, (S)-1-(1-methyl-1H-pyrazol-3-yl)-3-(4-(4-(3-methylmorpholino)-7,8-dihydro-5H-pyrano[4,3-d]pyrimidin-2-yl)phenyl)urea], the Ki in assay [2] was 3 nM. Moreover, the EC50 is 108 nM in assay [1] and 189 nM with PC3 cells.

As for `C[C@H]1COCCN1c1nc(-c2ccc(NC(=O)Nc3cnn(C)c3)cc2)nc2c1COCC2` [Example 22, (S)-1-(1-methyl-1H-pyrazol-4-yl)-3-(4-(4-(3-methylmorpholino)-7,8-dihydro-5H-pyrano[4,3-d]pyrimidin-2-yl)phenyl)urea], the Ki in assay [2] came to 4 nM. For the same molecule, the EC50 in assay [1] worked out at 42 nM; with PC3 cells it was 59 nM.

`C[C@H]1COCCN1c1nc(-c2ccc(NC(=O)NCC(F)(F)F)cc2)nc2c1COCC2` [Example 23, (S)-1-(4-(4-(3-methylmorpholino)-7,8-dihydro-5H-pyrano[4,3-d]pyrimidin-2-yl)phenyl)-3-(2,2,2-trifluoroethyl)urea]: the Ki in assay [2] stood at 16 nM. The figures for the EC50 (in assay [1]; in the assay with PC3 cells) were 49 nM and 993 nM, respectively.

Usually EC50 stands for the concentration giving half of the maximal effect. The Ki is a dissociation constant, usually derived from enzyme kinetics or from competition with a known ligand.
